Test results reported in patent publication US7141598B2, “Imidazole derivatives, production method thereof and use thereof” (Takeda Pharmaceutical Company, Ltd., priority 2000, dated 2006).
pIC50: −log10 of the molar value.

Experiments:
steroid C17,20-lyase = target: T1, steroid C17,20-lyase (Rattus norvegicus, UniProt P11715); assay: Assay of steroid C17,20-lyase-inhibitory activity in rat (testis microsome); format: biochemical; conditions: male SD rat orchis microsome, 10 nM [1.2-3H]-17α-hydroxyprogesterone, 37° C., 7 min; read-out: IC50 (steroid C17,20-lyase inhibition)
T1 construct: The orchis was homogenized and centrifuged to prepare a microsome; from tissue; host or cells: testis (orchis) microsomes of 13-week-old male SD rat
T1 sequence (P11715 1-507): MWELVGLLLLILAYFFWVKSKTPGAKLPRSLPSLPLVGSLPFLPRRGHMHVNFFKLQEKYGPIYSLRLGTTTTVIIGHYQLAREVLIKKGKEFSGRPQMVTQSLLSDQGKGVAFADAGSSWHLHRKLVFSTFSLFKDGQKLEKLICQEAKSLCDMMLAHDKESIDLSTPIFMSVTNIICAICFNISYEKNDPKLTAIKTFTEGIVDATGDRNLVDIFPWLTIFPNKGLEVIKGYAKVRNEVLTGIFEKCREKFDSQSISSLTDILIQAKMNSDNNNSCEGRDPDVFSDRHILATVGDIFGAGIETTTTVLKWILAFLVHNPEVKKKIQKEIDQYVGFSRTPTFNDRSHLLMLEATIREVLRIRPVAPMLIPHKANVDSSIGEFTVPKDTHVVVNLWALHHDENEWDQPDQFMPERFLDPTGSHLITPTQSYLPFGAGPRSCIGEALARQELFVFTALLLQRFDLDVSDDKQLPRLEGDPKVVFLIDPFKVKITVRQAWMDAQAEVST
Description: Assay of steroid C17,20-Lyase-Inhibitory Activity in Rat
The assay was performed according to The Prostate, Vol. 26, 140–150 (1995).
The orchis was removed from 13-week-old male SD rat. The orchis was homogenized and centrifuged to prepare a microsome. The [1.2-^3H]-17α-hydroxyprogesterone having a final concentration of 10 nM, NADPH solution and the test compound were dissolved in a 100 mM phosphate buffer solution (10 μl, pH 7.4). Microsome protein (7 μg/10 μl) was added and the mixture was incubated at 37° C. for 7 min. Ethyl acetate (40 μl) was added and the mixture was centrifuged, and the substrate and the product (androstenedione and testosterone) in the supernatant were separated by a silica gel thin layer chromatography (TLC). The spot was detected and quantitatively assayed by a BAS 2000 bioimage analyzer.

[1] = tested on: testosterone biosynthesis; assay: Assay of inhibitory effect on testosterone biosynthesis in rats; format: in vivo; conditions: 25 mg/kg oral, male SD rat, serum testosterone 2 h after administration, relative to control group
Description: Assay of Inhibitory Effect on Testosterone Biosynthesis in Rats
The test compound (25 mg/kg) was orally administered to 9-week-old male SD (Sprague Dawley) rat. Blood was taken at 2 h after administration of the compound and the concentration of testosterone in the obtained serum was assayed by radioimmunoassay. The proportion (T/C, %) of testosterone concentration of the test drug administration group relative to the testosterone concentration of the control group was calculated to determine testosterone synthesis-inhibitory activity.

human CYP3A4 = target: T2, human CYP3A4 (Homo sapiens, UniProt P08684); assay: Assay of human CYP3A4-inhibitory activity; format: biochemical; conditions: testosterone 100 μM, human CYP3A4 10 pmol/ml, 37° C., 30 min; read-out: IC50 (CYP3A4 inhibition, 6β-hydroxytestosterone production)
T2 construct: purchased GENTEST
T2 sequence (P08684 whole entry): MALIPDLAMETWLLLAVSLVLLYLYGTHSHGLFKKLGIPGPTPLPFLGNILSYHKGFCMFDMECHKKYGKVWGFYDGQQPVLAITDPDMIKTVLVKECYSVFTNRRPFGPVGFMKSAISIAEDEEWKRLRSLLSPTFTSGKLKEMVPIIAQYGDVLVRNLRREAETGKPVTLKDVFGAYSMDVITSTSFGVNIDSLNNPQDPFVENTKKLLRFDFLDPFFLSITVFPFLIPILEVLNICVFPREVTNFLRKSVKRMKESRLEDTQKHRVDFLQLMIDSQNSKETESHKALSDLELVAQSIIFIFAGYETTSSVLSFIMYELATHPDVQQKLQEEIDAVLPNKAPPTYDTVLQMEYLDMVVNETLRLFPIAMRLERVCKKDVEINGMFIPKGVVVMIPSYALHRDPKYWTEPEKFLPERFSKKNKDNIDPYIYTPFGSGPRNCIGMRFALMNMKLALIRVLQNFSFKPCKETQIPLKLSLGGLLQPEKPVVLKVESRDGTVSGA
Description: Assay of Human CYP3A4-Inhibitory Activity
Performed as in the following according to Journal of Biological Chemistry, vol. 256, 11937 (1983).
A phosphate buffer solution (50 mM, pH 7.4) containing testosterone (final concentration 100 μM, hereinafter the same), human CYP3A4 (10 pmol/ml, manufactured by GENTEST), NADPH producing system (0.5 mM NADP, 5 mM glucose-6-phosphate, 5 mM magnesium chloride, 1.5 units/ml glucose-6-phosphate dehydrogenase) and the test compound was incubated at 37° C. for 30 min. Acetonitrile was added to the reaction mixture and the mixture was stirred and centrifuged. The 6β-hydroxytestosterone in the obtained supernatant was analyzed by high performance liquid chromatography.

Row | SMILES | pIC50 (steroid C17,20-lyase) | inhibitory effect on testosterone biosynthesis (T/C, %) [1] | pIC50 (human CYP3A4)
1 | CNC(=O)c1ccc2cc(C3(O)CCn4cncc43)ccc2c1 (single isomer, unassigned; (+)) [Example 11, (+)-6-(7-hydroxy-6,7-dihydro-5H-pyrrolo[1,2-c]imidazol-7-yl)-N-methyl-2-naphthamide] | 7.32 | – | –
2 | OC1(c2cccc(-c3ccc(F)cc3)c2)CCn2cncc21 (stereo not shown) [Example 3, 7-(4′-fluoro[1,1′-biphenyl]-3-yl)-6,7-dihydro-5H-pyrrolo[1,2-c]imidazol-7-ol] | 8.00 | 4.4% | 5.02
3 | OC1(c2ccc(-c3ccc(F)cc3)cc2)CCn2cncc21 (stereo not shown) [Example 4, 7-(4′-fluoro[1,1′-biphenyl]-4-yl)-6,7-dihydro-5H-pyrrolo[1,2-c]imidazol-7-ol] | 7.60 | – | < 5.00
4 | CNC(=O)c1ccc2cc(C3(O)CCn4cncc43)ccc2c1 (stereo not shown) [Example 5, 6-(7-hydroxy-6,7-dihydro-5H-pyrrolo[1,2-c]imidazol-7-yl)-N-methyl-2-naphthamide] | 7.27 | – | –
